Experimental data as given in patent US6274568A, “Compounds for altering cell surface sialic acids and methods of use therefor” (priority 1999, dated 2001).
Entries after “also recorded” stand apart in the source; their conditions may differ.

Assays:
[1] = tested on: NG108-15 cells; test: Uptake of mannosamine precursors and conversion to sialic acids (precursor pool, gangliosides, glycoproteins) in NG108-15 cells, HPLC; type: cell-based, mouse neuroblastoma/rat glioma hybrid; conditions: for ganglioside (lipid) sialic acid in the NeuGc form: NG108-15, 20 mM precursor (FIG. 3)
Method: (§1) Cells were harvested using hypertonic Ca^2+ - and Mg^2+ -free phosphate-buffered saline containing 1 mM EDTA, collected by centrifugation, and homogenized in ice-cold water using a Potter-Elvehjem glass/Teflon homogenizer. Methanol (2.6 volumes) was added, the suspension mixed and brought to ambient temperature, then chloroform (1.3 volumes, based on the original homogenate) was added and the suspension mixed vigorously. The suspension was centrifuged 30 min at 2,000×g. After collecting the supernatant, the pellet (containing precipitated proteins) was resuspended in water or concentrated ammonium hydroxide and a portion was used for protein assay (BCA, Pierce, Rockford, Ill.). The supernatant was partitioned by adjusting the chloroform-methanol-water ratio to 4:8:5.6 by addition of water, mixing thoroughly, and centrifuging as above. The upper phase was collected and a portion was subjected to reverse phase chromatography, using Sep-Pak C18 cartridges (Waters, Milford, Mass.), to isolate gangliosides (Schnaar, Methods Enzymol. 230:371, 1994).
(§2) To quantify and identify sialic acids, a portion of resolublized protein, organic/aqueous soluble pool, or reverse-phase purified gangliosides was evaporated to dryness in a 500-μl polypropylene tube and 20 μl of 0.1 M HCl/0.25 M NaCl was added. One Ampliwax bead (Perkin Elmer Corp, Foster City, Calif.) per reaction was added to block evaporation, and the sample hydrolyzed for 3 h at 80° C. Released sialic acids were analyzed by injecting an aliquot (1-10 μl) onto a Dionex high pressure liquid chromatography system (Dionex Corporation, Sunnyvale, Calif.) using a HPIC-AS6 column and a pulsed amperometric detector. Elution solutions were: A, 0.75 mM NaOH; B, 200 mM NaOH; and C, 400 mM sodium acetate in 50 mM NaOH. NeuAc and NeuPr were resolved by elution with 40% A, 50% B, 10% C for 15 min at 1 ml/min. NeuGc was resolved in separate injections using step gradient elution: 0-1.8 min, 18% A, 50% B, 32% C; 2-10 min, 40% B, 60% C. Sialic acids were identified by comparison of their elution time with those of standard NeuAc, NeuPr and NeuGc and were quantified in comparison to a standard curve of commercial NeuAc (for NeuAc and NeuPr) or NeuGc.
(§3) To confirm that the quantified peaks represented sialic acids, 10 μl of acid hydrolysates were treated with 1 μl of 1 M sodium phosphate (pH 7.2) and 10 μl of 0.1 M NaOH. Neutralized samples were incubated at 37° C. for 2 h with or without 0.9 U of N-acetylneuraminic acid aldolase (Sigma), 32 μM NADH and 0.1 μg lactate dehydrogenase. Sialic acid content in the ganglioside and glycoprotein fractions is expressed per mg of total cell protein. Precursor pool sialic acid (sialic acid plus CMP-sialic acid) was calculated by subtracting the ganglioside value from the organic/aqueous pool value, both expressed per mg of cell protein.
Sialic acid is biosynthesized from the precursor sugar N-acetylmannosamine (FIG. 2). In the present invention, sialic acids are converted on live neuronal cells from NeuAc, which is a key determinant for MAG binding, to NeuGc, which is non-permissive for MAG binding. A potential NeuGc precursor, N-glycolylmannosamine monoacetate (ManNGcMA, FIG. 1, R1 =H) was tested for its ability to generate altered sialic acids in neuronal and non-neuronal cells. N-propanoylmannosamine (ManNPr) and other N-acyl mannosamine derivatives have been used to modify glycoprotein associated sialic acids to the corresponding N-acylneuraminic acid. N-propanoyl-mannosamine (ManNPr), was used as a positive control. […] Cell pellets were fractioned into lipid associated, protein associated, and intracellular (lipid and cytoplasmic which may consist of oligosaccharide-bound, free, or CMP-activated sialic acid) sialic acids and hydrolyzed to release sialic acid. The hydrolyzed samples were then analyzed by HPLC to determine sialic acid content. […]

[2] = tested on: Jurkat cells; test: Uptake of mannosamine precursors and conversion to sialic acids in Jurkat cells, HPLC; type: cell-based, human; conditions: 48 h
Method: as §1, §2, §3
Sialic acid is biosynthesized from the precursor sugar N-acetylmannosamine (FIG. 2). In the present invention, sialic acids are converted on live neuronal cells from NeuAc, which is a key determinant for MAG binding, to NeuGc, which is non-permissive for MAG binding. A potential NeuGc precursor, N-glycolylmannosamine monoacetate (ManNGcMA, FIG. 1, R1 =H) was tested for its ability to generate altered sialic acids in neuronal and non-neuronal cells. N-propanoylmannosamine (ManNPr) and other N-acyl mannosamine derivatives have been used to modify glycoprotein associated sialic acids to the corresponding N-acylneuraminic acid. N-propanoyl-mannosamine (ManNPr), was used as a positive control. Jurkat human lymphoma cells and NG108-15 cells (rodent neuroblastoma/glioma hybrid cells) were incubated in 20 mM synthetic precursor or control precursor (N-acetylmannosamine, ManNAc) for 48 h, then harvested. Cell pellets were fractioned into lipid associated, protein associated, and intracellular (lipid and cytoplasmic which may consist of oligosaccharide-bound, free, or CMP-activated sialic acid) sialic acids and hydrolyzed to release sialic acid. […]

[3] = tested on: MAG-Fc chimera; test: MAG-Fc binding to precursor-treated NG108-15 cells by flow cytometry; type: cell-based
Method: Flow cytometry was used to test binding of a soluble MAG-Fc chimera to precursor-treated and control NG108-15 cells. A chimeric protein consisting of the entire extracellular domain of MAG fused via a three amino acid bridge (TGK) to the human Fc domain was produced using the "pIgPlus" vector (Novagen, Madison, Wis.). A PCR fragment coding for the extracellular domain of MAG was prepared using MAG in pCDM8 as template (Yang et al., 1996a), the T7 5' primer […] (SEQ ID NO:1) and […] (SEQ ID NO:2) as the 3' primer. The fragment was cut with BamHI and HindIII and directionally cloned into the pIgPlus vector. The resulting construct was sequenced to confirm its identity, transfected into COS cells, and the resulting MAG-Fc chimera was purified from the culture medium using Protein G affinity chromatography.
For MAG binding studies, NG108-15 cells were cultured in the presence of sialic acid precursors for the indicated times, then were released from culture dishes using hypertonic Ca^2+ /Mg^2+ -free phosphate-buffered saline (Yang et al., Proc. Natl. Acad. Sci. USA., 93:814, 1996) and resuspended (at […]) in 25 mM Hepes-buffered Hanks balanced salt solution (Bashor, Methods Enzymol., 58:119, 1979) containing 5 mg/ml bovine serum albumin. MAG-Fc (6 μg) was added to 100 μl of the same buffer containing 6 μg fluorescein isothiocyanate-labeled goat anti-human Fc (Jackson Immunoresearch, West Grove, Pa.) and incubated on ice for 1 h 45 min with frequent mixing. Cell suspension (100 μl containing 50,000 cells) was added to the premixed antibody solution and the mixture incubated on ice for 45 min. The cells were then centrifuged for 4 sec at 16,000×g and washed three times by resuspension in 200 μl of buffer with bovine serum albumin and centrifugation. The resulting cell pellet was resuspended in 100 μl buffer with bovine serum albumin and flow cytometry was performed on an Epics Profile II cytometer (Coulter Corp, Hialeah, Fla.).
NG108-15 cells, a mouse neuroblastoma/rat glioma hybrid, display many qualities of cholinergic neurons, including neurite outgrowth, synthesis, storage and release of acetylcholine, and functional synapse formation with muscle cells in vitro. Neurite outgrowth from NG108-15 cells is inhibited by MAG (McKerracher et al., Neuron, 13:805, 1994), an interaction which is reversed by pretreatment of the cells with neuraminidase (Schnaar et al., Ann. N.Y. Acad. Sci., 845:92, 1998). […] Binding was quantified by flow cytometry. […]

[4] = tested on: myelin-associated glycoprotein (MAG); conditions: cited from earlier work
[5] = tested on: NG108-15 cells; test: Cell growth and viability of precursor-treated NG108-15 cells; conditions: 1 mM
Method: Cell growth rates were determined in control cultures (.box-solid.), in cultures treated with 0.08 mM (.circle-solid.), 0.25 mM (.smallcircle.), or 1 mM (.quadrature.) ManNGcPA, and in cultures treated with 0.25 mM (.tangle-solidup.) or 1 mM (Δ) glucose pentaacetate.
NG108-15 cells were maintained in Dulbecco's modified Eagle's medium (high glucose formulation) containing 5% iron-enriched calf serum, 100 μM hypoxanthine, 16 μM thymidine, and 5 μM aminopterin. […] Both cell types were cultured at 37° C. in a humidified atmosphere of 90% air/10% CO2. For treatment with sialic acid precursors, mannosamine derivatives were diluted into the appropriate medium and filter sterilized. […] In experiments testing ManNGcPA, all cells (control and experimental) were grown in the presence of 0.5% (v/v) DMSO, the carrier for ManNGcPA.

[6] = NG108-15, 20 mM precursor, 48 h

## CC(=O)N[C@@H]1C(O)O[C@H](CO)[C@@H](O)[C@@H]1O (stereo partly drawn) [ManNAc, N-acetylmannosamine, reference compound]
[1]; 20 mM precursor, 48 h
  increase in intracellular sialic acid (precursor pool): ≤ 14 fold
  increase in total glycoprotein sialic acid: ≈ 2 fold
[1]; [6]
  levels of intracellular sialic acid: high levels
[2]; 20 mM precursor
  levels of intracellular sialic acid: high levels

## CC(=O)N[C@@H]1C(OC(C)=O)O[C@H](COC(C)=O)[C@@H](OC(C)=O)[C@@H]1OC(C)=O (stereo partly drawn) [ManNAc-tetraacetate, ManNAc tetra-O-acetate, reference compound]
[3]; 1 mM, 96 h
  effect on MAG-Fc binding: no significant effect on binding

## CC(=O)OC[C@H]1OC(OC(C)=O)[C@@H](NC=O)[C@@H](OC(C)=O)[C@@H]1OC(C)=O (stereo partly drawn) [ManNFr-OAc, N-formylmannosaminne peracetate]
[1]; 48 hours
  glycolipid associated sialic acid as NeuFr: 10%
[1]; FIG. 13
  levels of intracellular sialic acid in the form of NeuFr: elevated levels of intracellular sialic acid in the form of N-formyneuraminic acid

## O=C(CO)N[C@@H]1C(O)O[C@H](CO)[C@@H](O)[C@@H]1O (stereo partly drawn) [ManNGc, N-glycolylmannosamine]
[1]; 5 mM
  levels of NeuGc in any of the fractions analyzed: did not result in substantial levels of NeuGc
[1]; 5 mM in the presence of DMSO, 48 h
  levels of NeuGc (elevation): did not result in elevated levels of NeuGc
[1]; 5 mM, 48 h
  intracellular sialic acid in the form of NeuGc: 13.6%
  protein associated sialic acid as NeuGc: 9.5%
[1]; 5.0 mM, 48 h
  total lipid associated sialic acid as NeuGc: 5%
[1]; 48 h
  ganglioside (lipid) sialic acid in the NeuGc form: ~70%
[1]; NG108-15 compared with Jurkat, 48 h
  intracellular NeuGc: substantially lower levels
[1]; in MAG recognition experiment
  glycoconjugate sialic acid in the form of NeuGc: 60%
[3]; ng108-15 cells
  decrease in MAG-mediated recognition: 60%
[2]
  intracellular NeuGc: expected rise in intracellular NeuGc
  lipid sialic acid in the form of NeuGc: Approximately 50%
  protein sialic acid in the form of NeuGc: Approximately 50%

## CC(=O)OCC(=O)N[C@@H]1C(O)O[C@H](CO)[C@@H](O)[C@@H]1O (stereo partly drawn) [ManNGcMA, N-Glycolylmannosamine monoacetate]
[1]; 5 mM, 48 h
  incorporation of NeuGc into gangliosides, relative to 1 mM ManNGcPA: much less
  incorporation of NeuGc into glycoproteins, relative to 1 mM ManNGcPA: much less
[1]; 20 mM precursor, 48 h
  conversion of glycoprotein sialic acids to the NeuGc form: ≈ 30%
  decrease in total glycoprotein sialic acid: ≈ 40%
  sialic acid precursor pool in the NeuGc form: ≈ 70%
  sialic acid precursor pool size compared to untreated control: markedly smaller sialic acid precursor pool
[1]; 0.1 or 1.0 mM ManNGcPA, or 5 mM ManNGcMA, 48 h
  sialic acid precursor pool size: none of these treatments significantly altered the sialic acid precursor pool size
[1]; 48 h
  ganglioside (lipid) sialic acid in the NeuGc form: ≈ 30%
[1]; [6]
  size of the ganglioside pool: remained relatively constant
[2]; 20 mM precursor
  sialic acid precursor pool as NeuGc: nearly all NeuGc
  total sialic acid precursor pool size: increase in total sialic acid precursor pool size (comparable to treatment with ManNPr)

## O=C(CO)N[C@H]1[C@H]([C@H](O)[C@H](O)CO)OC(O)(C(=O)O)C[C@@H]1O (stereo partly drawn) [NeuGc, N-glycolylneuraminic acid]
[4]
  support of MAG binding / recognition: but not N-glycolylneuraminic acid (NeuGc) support MAG binding; also recorded: does not support MAG binding

## glucose pentaacetate
[5]
  cell growth: more profound decreases in cell growth and viability than the ManNGcPA-treated cells
  cell viability (in words): more profound decreases in cell growth and viability than the ManNGcPA-treated cells
